What was measured:
Assay in all cases: relative viability (nuclei count vs DMSO), 5 days (fraction); higher = more cells survive
FG-4592 + Navitoclax = compound: Cc1nc(C(=O)NCC(=O)O)c(O)c2ccc(Oc3ccccc3)cc12 [FG-4592] + CC1(C)CCC(c2ccc(Cl)cc2)=C(CN2CCN(c3ccc(C(=O)NS(=O)(=O)c4ccc(N[C@H](CCN5CCOCC5)CSc5ccccc5)c(S(=O)(=O)C(F)(F)F)c4)cc3)CC2)C1 [Navitoclax] (partner 0.5 µM)
In short: (§1)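 Each reported value is a median over duplicate plates. It expresses relative viability: treated-well nuclei count divided by vehicle-well nuclei count. Lung cancer cell lines in 1536-well plates were dosed by pin tool a day after seeding, alone with one drug or with a fixed anchor-drug dose plus five library-drug doses (not always all listed) in √10 steps, and nuclei were counted after 5 days.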

IU1-47 + Foretinib = compound: CC1=CC(=C(N1C2=CC=C(C=C2)Cl)C)C(=O)CN3CCCCC3 [IU1-47] + COc1cc2c(Oc3ccc(NC(=O)C4(C(=O)Nc5ccc(F)cc5)CC4)cc3F)ccnc2cc1OCCCN1CCOCC1 [Foretinib] (partner 0.25 µM)
In short: as §1

IU1-47 + Vorinostat = compound: CC1=CC(=C(N1C2=CC=C(C=C2)Cl)C)C(=O)CN3CCCCC3 [IU1-47] + O=C(CCCCCCC(=O)Nc1ccccc1)NO [Vorinostat] (partner 1 µM)
In short: as §1

FG-4592 + Trametinib = compound: Cc1nc(C(=O)NCC(=O)O)c(O)c2ccc(Oc3ccccc3)cc12 [FG-4592] + CC(=O)Nc1cccc(-n2c(=O)n(C3CC3)c(=O)c3c(Nc4ccc(I)cc4F)n(C)c(=O)c(C)c32)c1 [Trametinib] (partner 0.02 µM)
In short: as §1

Cell Line	relative viability (FG-4592 + Navitoclax; first compound 0.08 µM)	relative viability (FG-4592 + Navitoclax; first compound 0.253 µM)	relative viability (FG-4592 + Navitoclax; first compound 0.8 µM)	relative viability (FG-4592 + Navitoclax; first compound 2.53 µM)	relative viability (FG-4592 + Navitoclax; first compound 8 µM)	relative viability (IU1-47 + Foretinib; first compound 0.08 µM)	relative viability (IU1-47 + Foretinib; first compound 0.253 µM)	relative viability (IU1-47 + Foretinib; first compound 0.8 µM)	relative viability (IU1-47 + Foretinib; first compound 2.53 µM)	relative viability (IU1-47 + Foretinib; first compound 8 µM)	relative viability (IU1-47 + Vorinostat; first compound 0.08 µM)	relative viability (IU1-47 + Vorinostat; first compound 0.253 µM)	relative viability (IU1-47 + Vorinostat; first compound 0.8 µM)	relative viability (IU1-47 + Vorinostat; first compound 2.53 µM)	relative viability (IU1-47 + Vorinostat; first compound 8 µM)	relative viability (FG-4592 + Trametinib; first compound 0.08 µM)	relative viability (FG-4592 + Trametinib; first compound 0.253 µM)	relative viability (FG-4592 + Trametinib; first compound 0.8 µM)	relative viability (FG-4592 + Trametinib; first compound 2.53 µM)	relative viability (FG-4592 + Trametinib; first compound 8 µM)
201T	1.14	1.19	1.21	1.18	1.22	1.31	1.22	1.26	1.05	1.09	1.08	1.03	1.07	0.356	0.915	0.691	0.695	0.719	0.772	0.708
A549	1.25	1.21	1.27	1.28	1.08	0.9	1.09	0.983	1.08	0.889	–	–	–	–	–	–	–	–	–	–
A-427	0.829	0.739	0.802	1.08	0.914	1.08	1.16	1.22	–	0.93	0.894	0.847	0.841	0.883	0.836	0.772	0.724	0.677	0.72	0.723
ABC-1	–	–	–	–	–	1.1	0.985	1.06	–	1.07	1.32	1.08	0.987	–	1.06	–	–	–	–	–
BEN	0.0578	0.0857	0.0654	0.0822	0.0636	0.618	0.676	0.646	–	0.61	0.605	0.653	0.681	0.564	0.544	0.916	0.913	0.783	0.879	0.871
CAL-12T	1.22	1.18	1.33	1.05	0.764	1.12	1.1	1.13	1.11	1.03	0.826	0.759	0.711	0.747	0.841	0.367	0.307	0.301	0.29	0.219
COR-L23	0.924	0.98	1.14	0.909	0.932	1.14	1.09	1.08	1.02	1.16	0.383	0.514	0.439	0.466	0.404	0.678	0.519	0.608	0.508	0.355
COR-L 105	0.777	0.709	0.919	0.595	0.74	0.907	1.14	1.22	1.2	1.4	1.02	1.01	0.779	0.745	0.958	0.45	0.461	0.445	0.434	0.397
Calu-6	0.795	0.734	0.974	0.914	0.87	1	1.01	0.934	0.917	0.874	–	–	–	–	–	–	–	–	–	–
ChaGo-K-1	1.04	1.03	0.708	1.15	0.54	0.967	0.934	0.954	0.979	0.81	0.835	0.766	0.806	0.623	0.717	0.953	0.79	0.899	0.846	0.931
EBC-1	0.469	0.389	0.425	0.493	0.397	0.0995	0.107	0.0951	0.111	0.102	–	–	–	–	–	–	–	–	–	–
EKVX	0.848	0.813	0.855	1.09	1.04	1.12	1.19	0.769	0.265	0.85	0.951	0.632	0.846	0.573	0.631	0.318	0.352	0.334	0.332	0.24
EMC-BAC-2	1.13	1.12	1.11	1.16	1.09	1.07	1.11	0.984	1.02	1.05	0.456	0.488	0.42	0.442	0.419	0.939	0.892	–	0.845	0.88
EPLC-272H	1.15	1.09	0.775	1.05	1.08	0.659	0.775	0.764	–	0.606	0.382	0.55	0.494	0.394	0.461	0.288	0.232	0.234	0.303	0.308
H3255	0.554	0.387	0.523	0.596	0.6	0.858	0.958	1.44	0.368	0.832	0.918	0.883	1.02	–	0.669	0.6	0.547	0.5	0.602	0.532
HARA	1.15	1.09	–	1.13	1.15	1.02	1.1	1.04	–	0.742	0.421	0.679	0.646	0.575	0.479	–	–	–	0.586	0.667
HCC-15	0.758	0.698	0.686	0.714	0.744	1.07	1.11	1.15	1.01	1.05	0.885	0.894	0.946	0.766	0.731	0.41	0.359	0.352	0.395	0.412
HCC-44	1.01	0.935	0.997	1.11	1.03	–	–	–	–	–	1.16	1.09	1.11	1.13	1.09	1.06	1.08	1.1	0.991	1.08
HCC-78	0.904	0.766	0.442	0.773	0.806	0.608	0.57	0.615	0.551	0.606	0.557	0.432	0.463	0.397	0.438	0.719	–	0.741	0.578	0.743
